Test results reported in the supplement of paper PMC10307832.

What was measured:
Test in all cases: relative viability (nuclei count vs DMSO), 5 days (fraction); higher = more cells survive
RO-3306 + Alpelisib = compound: C1=CC2=C(C=CC(=C2)C=C3C(=O)NC(=NCC4=CC=CS4)S3)N=C1 [RO-3306] + Cc1nc(NC(=O)N2CCC[C@H]2C(N)=O)sc1-c1ccnc(C(C)(C)C(F)(F)F)c1 [Alpelisib] (partner 2 µM)
How it was run: (§1)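 Lung cancer cell lines in 1536-well plates were dosed by pin tool the day after seeding, either with one drug alone or with a fixed anchor-drug dose plus five library-drug doses (not always all listed) in √10 steps. After 5 days, cells were fixed and their nuclei stained in one step (final 0.05% Triton X-100, 1% formaldehyde, 1 ug/ml Hoechst), then counted on 4× images. Relative viability is the nuclei count in treated wells divided by that in vehicle wells. Values are medians of duplicate plates.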

RO-3306 + Phenformin = compound: C1=CC2=C(C=CC(=C2)C=C3C(=O)NC(=NCC4=CC=CS4)S3)N=C1 [RO-3306] + N=C(N)NC(=N)NCCc1ccccc1 [Phenformin] (partner 250 µM)
How it was run: as §1

[1] = compound: O=S(=O)(c1ccccc1)N(CC(F)(F)F)c1ccc(C(O)(C(F)(F)F)C(F)(F)F)cc1 + CC(=O)Nc1cccc(-n2c(=O)n(C3CC3)c(=O)c3c(Nc4ccc(I)cc4F)n(C)c(=O)c(C)c32)c1 [Trametinib] (partner 0.02 µM)
How it was run: as §1

[2] = compound: O=S(=O)(c1ccccc1)N(CC(F)(F)F)c1ccc(C(O)(C(F)(F)F)C(F)(F)F)cc1 + Cc1cc(Nc2cc(N3CCN(C)CC3)nc(Sc3ccc(NC(=O)C4CC4)cc3)n2)n[nH]1 [Tozasertib] (partner 0.1 µM)
How it was run: as §1

[3] = compound: O=S(=O)(c1ccccc1)N(CC(F)(F)F)c1ccc(C(O)(C(F)(F)F)C(F)(F)F)cc1 + Nc1nc2[nH]cc(CCc3ccc(C(=O)N[C@@H](CCC(=O)O)C(=O)O)cc3)c2c(=O)[nH]1 [Pemetrexed] (partner 0.2 µM)
How it was run: as §1

Cell Line	relative viability (RO-3306 + Alpelisib; first compound 0.01 µM)	relative viability (RO-3306 + Alpelisib; first compound 0.03162 µM)	relative viability (RO-3306 + Alpelisib; first compound 0.1 µM)	relative viability (RO-3306 + Alpelisib; first compound 0.3162 µM)	relative viability (RO-3306 + Alpelisib; first compound 1 µM)	relative viability (RO-3306 + Phenformin; first compound 0.01 µM)	relative viability (RO-3306 + Phenformin; first compound 0.03162 µM)	relative viability (RO-3306 + Phenformin; first compound 0.1 µM)	relative viability (RO-3306 + Phenformin; first compound 0.3162 µM)	relative viability (RO-3306 + Phenformin; first compound 1 µM)	relative viability ([1]; first compound 0.8 µM)	relative viability ([1]; first compound 2.53 µM)	relative viability ([1]; first compound 8 µM)	relative viability ([2]; first compound 0.8 µM)	relative viability ([2]; first compound 2.53 µM)	relative viability ([2]; first compound 8 µM)	relative viability ([3]; first compound 0.8 µM)	relative viability ([3]; first compound 2.53 µM)	relative viability ([3]; first compound 8 µM)
HCC-366	0.377	0.347	0.389	0.503	0.34	0.644	0.547	0.65	0.613	0.63	0.469	0.335	0.23	0.133	0.0684	0.0773	0.16	0.182	0.174
HCC-827	1.04	1.05	0.921	0.946	1.06	0.406	0.308	0.407	0.381	0.408	0.527	0.503	0.244	0.419	0.414	0.406	0.266	0.246	0.239
HOP-62	1.02	0.992	0.933	1.04	0.986	0.694	0.405	0.777	0.714	0.659	0.391	0.297	0.355	0.392	0.35	0.26	0.238	0.271	0.243
IA-LM	0.895	0.56	0.725	0.708	0.948														
LC-2-ad	1.07	0.832	0.846	0.887	0.812	0.538	0.476	0.492	0.614	0.562	0.881	0.884	0.758	0.496	0.492	0.474	0.274	0.286	0.244
LCLC-97TM1		0.243	0.243	0.27	0.179	0.395	0.442	0.45	0.455	0.472		0.234	0.165	0.218	0.21	0.156		0.16	0.179
LCLC-103H	0.919	0.976	1.03	0.962	0.948	0.36	0.27	0.298	0.342	0.328	0.71	0.731	0.739	0.541	0.447	0.349	0.457	0.465	0.467
LK-2	1.27	0.897	1.02	1.31	1.03	0.445		0.312	0.499	0.344	0.69	0.548	0.704	0.174	0.188	0.189	0.283	0.266	0.298
LOU-NH91	0.7	0.705	0.764	0.708	0.671	0.808	0.709	0.681	0.649	0.694	0.919	0.844	0.914	0.735	0.701	0.678	0.424	0.434	0.35
LU99A	0.492	0.452	0.564	0.472	0.491	0.973	0.698	0.769	0.869	0.79	0.521	0.541	0.464	0.235	0.238	0.253	0.184	0.18	0.18
NCI-H522						0.599	0.615	0.699	0.666	0.733	0.607	0.781	0.689	0.567	0.488	0.615	1.03	1.11	0.877
NCI-H727	0.622	0.531	0.517	0.716	0.786	0.535		0.502	0.458	0.576	0.358	0.368	0.375	0.605	0.572	0.674			
NCI-H1299	1.07	0.808	1.05	1.07	1.12														
NCI-H1563	0.992	0.906	0.823	1	0.898	0.643	0.639	0.641	0.631	0.666							0.737	0.749	0.75
NCI-H1623						0.61	0.597	0.579	0.58	0.568				0.399	0.396	0.366			
NCI-H1648											0.628	0.369	0.44	0.408	0.293	0.339	0.718	0.574	0.535
NCI-H1650						0.419	0.397	0.38	0.358	0.293	0.513	0.645	0.53	0.348	0.404	0.346	0.332	0.355	0.397
NCI-H1703	0.467	0.324	0.342	0.262	0.307														
NCI-H1792	0.803		0.668	0.757	0.457	0.196		0.156	0.289	0.259	0.407	0.303	0.287				0.892	0.702	0.717
NCI-H2342						0.591	0.519	0.527	0.569	0.586	0.917	0.854	0.861	0.483	0.609	0.493	0.894	0.841	0.956
SW 900						0.636	0.539	0.506	0.465	0.502	0.787	0.828	0.607	0.528	0.426	0.404	0.581	0.478	0.538
